According to US12599676B2, “Cytotoxic imidazo[1,2-A]pyridine compounds and their use in therapy” (MyricX Pharma Limited, priority 2022, dated 2026):

Tested on: DOHH-2 tumor cells
Assay: Subcutaneous xenograft DOHH-2 lymphoma model
Assay type: in vivo, CB17/SCID mice
Conditions: intraperitoneal dosing (Example 5: 7 or 20 mg/kg; Example 12: 0.7 or 2 mg/kg), QD cycles
Procedure: The in vivo efficacy of certain Example compounds was assessed in a subcutaneous xenograft DOHH-2 Lymphoma Model using 10 female 6-8 week old CB17/SCID Mice. Each mouse was inoculated subcutaneously at the right front region with DOHH-2 tumor cells (5×10^6) in 0.1 ml of PBS mixed with matrigel (1:1 PBS:matrigel) for tumor development. The test compound administration started once the mean tumor size reached approximately 100-150 mm^3.
Compounds were administered either IP (vehicle 10 mM sodium phosphate+0.2% Tween-80 (pH7.4) or orally (vehicle 15 Na2HPO4 buffer (10 mM) (pH 4.5)+0.2% tween 80). Tumor volumes were measured in two dimensions using a caliper, and the volume expressed in mm^3 using the formula: V=(L×W×W)/2, where V is tumor volume, L is tumor length (the longest tumor dimension) and W is tumor width (the longest tumor dimension perpendicular to L).
Mice were dosed with Example 21 orally (12.5 or 25 mg/kg) once a day for 9 consecutive days (FIG. 3). Example 5 was dosed intraperitoneally (7 or 20 mg/kg) in a cycle consisting of administration QD for three days followed by a three day no-dosing period followed by QD dosing for a further three days (FIG. 4). Example 12 was dosed intraperitoneally (0.7 or 2 mg/kg) in a cycle consisting of administration QD for three days followed by a three day no-dosing period followed by QD dosing for a further three days (FIG. 5). In a separate study Example 12 was dosed at […] in a cycle consisting of administration QD for two days followed by either four or six day no-dosing period, and this cycle was repeated three times (FIG. 6).

CNCc1cnc2ccc(-c3ccc(F)c(F)c3OCCc3c(C(O)C(C)(C)C)nn(C)c3C)cn12 (single isomer, unassigned) [Example 12, 1-(4-(2-(2,3-difluoro-6-(3-((methylamino)methyl)imidazo[1,2-a]pyridin-6-yl)phenoxy)ethyl)-1,5-dimethyl-1H-pyrazol-3-yl)-2,2-dimethylpropan-1-ol]
tumour volume compared to vehicle: significant reduction in tumour volume or reduced growth in tumour volume
